Biological target: T1, ALDH2 (Homo sapiens, UniProt P05091)
T1 sequence (P05091 18-517): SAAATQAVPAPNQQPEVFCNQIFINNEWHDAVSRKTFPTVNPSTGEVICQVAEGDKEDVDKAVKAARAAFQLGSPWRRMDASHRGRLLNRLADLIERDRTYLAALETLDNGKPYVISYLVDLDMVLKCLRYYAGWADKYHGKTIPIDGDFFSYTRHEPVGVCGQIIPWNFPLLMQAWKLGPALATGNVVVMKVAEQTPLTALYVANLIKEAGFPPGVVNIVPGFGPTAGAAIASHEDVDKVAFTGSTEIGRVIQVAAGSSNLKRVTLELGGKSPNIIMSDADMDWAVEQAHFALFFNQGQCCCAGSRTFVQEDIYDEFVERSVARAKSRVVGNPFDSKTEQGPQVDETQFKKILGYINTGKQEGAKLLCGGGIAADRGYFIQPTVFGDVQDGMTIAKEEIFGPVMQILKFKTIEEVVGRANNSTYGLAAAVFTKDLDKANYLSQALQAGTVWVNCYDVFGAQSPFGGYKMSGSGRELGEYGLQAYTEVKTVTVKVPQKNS
Test: Selectivity biochemical assay, NAD(P)H-Glo Detection System
Protocol: Materials: ALDH2 was purchased from Abnova. Tris(hydroxymethyl)aminomethane (Tris) was purchased from MP Biomedicals. TCEP, ethylenediaminetetraacetic acid (EDTA), propionaldehyde, DMSO and Tween-20 were purchased from Sigma. Nicotinamide adenine dinucleotide (NAD) was obtained from Abcam. The NAD(P)H-Glo™ Detection System was purchased from Promega. White, non-binding surface, 384 well plates were supplied by Corning (#3574).
Method: Inhibition of ALDH1A3 was assessed using the NAD(P)H-Glo™ Detection System (Cat. No. G9062) from Promega. This assay detects the production of NADH from NAD by ALDH1A3 via the coupled enzymatic conversion of a proluciferin reductase substrate to generate a luminescent signal. Inhibition of ALDH1A3 by small molecule inhibitors will result in reduction or abrogation of luminescence signal increase above background. Inhibition of ALDH1A1, ALDH1A2 and ALDH2 (selectivity assays) were assessed using the same assay.
Compounds were dosed into Corning 384 well assay plates using an Echo acoustic dispenser to give 10 point curves in a 3-fold dilution series. Compounds were dispensed from a 20 mM DMSO stock and initially screened at a top concentration of 20 μM (ALDH1A3) or 250 μM (ALDH1A1, ALDH1A2 & ALDH2). Enzyme was added to the plate in a 5 μL volume, according to the final concentrations in table 1 below, and pre-incubated with compound for 30 minutes at room temperature before the addition of 5 μL of the substrate (propionaldehyde) and cofactor (NAD), to effect final concentrations equal to the Km as shown in Table 1. The assay buffer used consisted of 40 mM Tris for 1A1 (pH 7.6), 1A2 (pH 7.6) and 1A3 (pH 9.0) and 10 mM Tris for ALDH2 (pH 8.0) supplemented with 1 mM TCEP, 0.01% Tween-20, 0.1 mM EDTA. The reaction mix was incubated at 26° C. on a shaking incubator for 30 minutes before being stopped by the addition of 10 μL of the Promega detection reagent and 100×IC50 of inhibitors of the respective isoforms. After stopping the reaction the plate was incubated for 60 minutes at room temperature and the luminescence signal read on a PheraStar FS microplate reader (BMG Labtech) and resulting IC50 values were calculated using Dotmatics software.
Enzyme, substrate and cofactor concentrations were selected to ensure the reaction ran under initial velocity conditions.

SMILES	IC50
O=C1CCc2cc(OCCN3CC(O)CC3c3cccc(F)c3)ccc2N1 (mixture of isomers) [ALDHI-2035, 6-[2-[2-(3-fluorophenyl)-4-hydroxy-pyrrolidin-1-yl]ethoxy]-3,4-dihydro-1H-quinolin-2-one]	≥ 100 µM
O=C1COc2cc(NC(=O)c3scnc3-c3cccc(F)c3)ccc2N1 [ALDHI-1016, 4-(3-fluorophenyl)-N-(3-oxo-4H-1,4-benzoxazin-7-yl)thiazole-5-carboxamide]	≥ 100 µM
CN(CCOc1ccc2c(c1)CCC(=O)N2)C(=O)c1cccc(F)c1 [ALDHI-3008, 3-fluoro-N-methyl-N-[2-[(2-oxo-3,4-dihydro-1H-quinolin-6-yl)oxy]ethyl]benzamide]	≥ 100 µM
O=C1CCc2cc(OCCN3CCCC3c3cccnc3)ccc2N1 (centres unmarked) [ALDHI-2005, 6-[2-[2-(3-pyridyl)pyrrolidin-1-yl]ethoxy]-3,4-dihydro-1H-quinolin-2-one]	≥ 100 µM
O=C1CCc2cc(OCCN3C(=O)CCC3c3ccccc3)ccc2N1 (centres unmarked) [ALDHI-2051, 6-[2-(2-oxo-5-phenyl-pyrrolidin-1-yl)ethoxy]-3,4-dihydro-1H-quinolin-2-one]	≥ 100 µM
O=C1CSc2cc(OCCN3CCCC3c3ccncc3)ccc2N1 (centres unmarked) [ALDHI-2029, 7-[2-[2-(4-pyridyl)pyrrolidin-1-yl]ethoxy]-4H-1,4-benzothiazin-3-one]	≥ 100 µM
C[C@@H](c1ccccc1)N(CCO)CCOc1ccc2c(c1)CCC(=O)N2 [ALDHI-3007, 6-[2-[2-hydroxyethyl-[(1S)-1-phenylethyl]amino]ethoxy]-3,4-dihydro-1H-quinolin-2-one]	≥ 100 µM
Cc1ccccc1C1CCCN1CCOc1ccc2c(c1)CCC(=O)N2 (centres unmarked) [ALDHI-2012, 6-[2-[2-(o-tolyl)pyrrolidin-1-yl]ethoxy]-3,4-dihydro-1H-quinolin-2-one]	≥ 100 µM
O=C1CCc2cc(OCCN3CCCC3c3ccccc3)ccc2N1 (centres unmarked) [ALDHI-2019, 6-[2-(2-phenylpyrrolidin-1-yl)ethoxy]-3,4-dihydro-1H-quinolin-2-one]	≥ 100 µM
O=C1CCc2cc(NC(=O)c3sc(N4CCOCC4)nc3-c3cccc(F)c3)ccc2N1 [ALDHI-1001, 4-(3-fluorophenyl)-2-morpholino-N-(2-oxo-3,4-dihydro-1H-quinolin-6-yl)thiazole-5-carboxamide]	≥ 100 µM
CCn1cc(C2CCCN2CCOc2ccc3c(c2)CCC(=O)N3)cn1 (centres unmarked) [ALDHI-2016, 6-[2-[2-(1-ethylpyrazol-4-yl)pyrrolidin-1-yl]ethoxy]-3,4-dihydro-1H-quinolin-2-one]	≥ 100 µM
O=C1CCc2cc(NC(=O)c3scnc3-c3ccccc3Cl)ccc2N1 [ALDHI-1012, 4-(2-chlorophenyl)-N-(2-oxo-3,4-dihydro-1H-quinolin-6-yl)thiazole-5-carboxamide]	≥ 100 µM
Cc1ccc(C2CCCN2CCOc2ccc3c(c2)CCC(=O)N3)cn1 (centres unmarked) [ALDHI-2030, 6-[2-[2-(6-methyl-3-pyridyl)pyrrolidin-1-yl]ethoxy]-3,4-dihydro-1H-quinolin-2-one]	≥ 100 µM
O=C1CCc2cc(NC(=O)c3ncsc3-c3cccc(F)c3)ccc2N1 [ALDHI-1014, 5-(3-fluorophenyl)-N-(2-oxo-3,4-dihydro-1H-quinolin-6-yl)thiazole-4-carboxamide]	≥ 100 µM
O=C1CCc2cc(OCCN3CCCC3c3ccccc3F)ccc2N1 (centres unmarked) [ALDHI-2002, 6-[2-[2-(2-fluorophenyl)pyrrolidin-1-yl]ethoxy]-3,4-dihydro-1H-quinolin-2-one]	≥ 100 µM
CC1(C)Oc2cc(OCCN3CCCC3c3cccc(F)c3)ccc2NC1=O (centres unmarked) [ALDHI-2043, 7-[2-[2-(3-fluorophenyl)pyrrolidin-1-yl]ethoxy]-2,2-dimethyl-4H-1,4-benzoxazin-3-one]	≥ 100 µM
Cc1nc(C2CCCN2CCOc2ccc3c(c2)CCC(=O)N3)cs1 (centres unmarked) [ALDHI-2033, 6-[2-[2-(2-methylthiazol-4-yl)pyrrolidin-1-yl]ethoxy]-3,4-dihydro-1H-quinolin-2-one]	≥ 100 µM
O=C1CCc2cc(OCCn3ccnc3-c3ccccc3)ccc2N1 [ALDHI-2041, 6-[2-(2-phenylimidazol-1-yl)ethoxy]-3,4-dihydro-1H-quinolin-2-one]	≥ 100 µM
O=C1CSc2cc(OCCN3CCCC3c3cccc(F)c3)ccc2N1 (centres unmarked) [ALDHI-2008, 7-[2-[2-(3-fluorophenyl)pyrrolidin-1-yl]ethoxy]-4H-1,4-benzothiazin-3-one]	≥ 100 µM
O=C1CCc2cc(NC(=O)c3sc(N4CCNCC4)nc3-c3cccc(F)c3)ccc2N1 [ALDHI-1005, 4-(3-fluorophenyl)-N-(2-oxo-3,4-dihydro-1H-quinolin-6-yl)-2-piperazin-1-yl-thiazole-5-carboxamide]	≥ 100 µM
COc1cccc(C2CCCN2CCOc2ccc3c(c2)CCC(=O)N3)c1 (centres unmarked) [ALDHI-2034, 6-[2-[2-(3-methoxyphenyl)pyrrolidin-1-yl]ethoxy]-3,4-dihydro-1H-quinolin-2-one]	≥ 100 µM
Cc1cccc(-c2ncsc2C(=O)Nc2ccc3c(c2)CCC(=O)N3)c1 [ALDHI-1013, 4-(m-tolyl)-N-(2-oxo-3,4-dihydro-1H-quinolin-6-yl)thiazole-5-carboxamide]	≥ 100 µM
CC1(c2ccccc2)COCCN1CCOc1ccc2c(c1)CCC(=O)N2 (centres unmarked) [ALDHI-2040, 6-[2-(3-methyl-3-phenyl-morpholin-4-yl)ethoxy]-3,4-dihydro-1H-quinolin-2-one]	≥ 100 µM

Reference: patent publication US20240174634A1, “Aldehyde Dehydrogenase Inhibitors and Their Therapeutic Use” (priority 2020, published 2024)
